# Measurements reported in ChEMBL document CHEMBL1129561 (J Med Chem, 1996).
# Legend:
# Progesterone receptor [1] = target: T1, Progesterone receptor (Homo sapiens, UniProt P06401)
# T1 sequence (P06401 whole entry): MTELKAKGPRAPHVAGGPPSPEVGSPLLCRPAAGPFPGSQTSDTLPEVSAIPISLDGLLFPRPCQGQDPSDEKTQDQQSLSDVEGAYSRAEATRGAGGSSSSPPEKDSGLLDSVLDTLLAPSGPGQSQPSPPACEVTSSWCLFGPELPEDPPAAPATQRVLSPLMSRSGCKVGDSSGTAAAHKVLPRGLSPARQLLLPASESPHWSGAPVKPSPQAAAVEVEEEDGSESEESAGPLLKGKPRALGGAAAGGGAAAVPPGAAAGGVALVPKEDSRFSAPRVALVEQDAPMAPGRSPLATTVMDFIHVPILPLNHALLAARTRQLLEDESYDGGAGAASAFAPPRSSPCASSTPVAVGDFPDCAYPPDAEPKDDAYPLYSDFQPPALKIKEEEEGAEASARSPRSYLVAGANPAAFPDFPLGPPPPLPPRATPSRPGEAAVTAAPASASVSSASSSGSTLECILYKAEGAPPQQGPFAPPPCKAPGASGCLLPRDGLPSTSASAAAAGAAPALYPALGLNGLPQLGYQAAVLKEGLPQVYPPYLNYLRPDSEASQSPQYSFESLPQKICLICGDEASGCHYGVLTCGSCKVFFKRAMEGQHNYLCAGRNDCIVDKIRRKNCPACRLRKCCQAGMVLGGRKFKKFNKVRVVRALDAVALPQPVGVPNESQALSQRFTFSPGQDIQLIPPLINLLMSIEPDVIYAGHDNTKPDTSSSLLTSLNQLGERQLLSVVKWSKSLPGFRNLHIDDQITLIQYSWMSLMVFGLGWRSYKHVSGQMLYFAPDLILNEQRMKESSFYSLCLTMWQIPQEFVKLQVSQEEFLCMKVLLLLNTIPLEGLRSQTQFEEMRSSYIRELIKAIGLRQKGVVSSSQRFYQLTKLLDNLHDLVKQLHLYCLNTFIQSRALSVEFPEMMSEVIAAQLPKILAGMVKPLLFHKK
# Androgen receptor = target: T2, Androgen receptor (Homo sapiens, UniProt P10275)
# T2 sequence (P10275 whole entry): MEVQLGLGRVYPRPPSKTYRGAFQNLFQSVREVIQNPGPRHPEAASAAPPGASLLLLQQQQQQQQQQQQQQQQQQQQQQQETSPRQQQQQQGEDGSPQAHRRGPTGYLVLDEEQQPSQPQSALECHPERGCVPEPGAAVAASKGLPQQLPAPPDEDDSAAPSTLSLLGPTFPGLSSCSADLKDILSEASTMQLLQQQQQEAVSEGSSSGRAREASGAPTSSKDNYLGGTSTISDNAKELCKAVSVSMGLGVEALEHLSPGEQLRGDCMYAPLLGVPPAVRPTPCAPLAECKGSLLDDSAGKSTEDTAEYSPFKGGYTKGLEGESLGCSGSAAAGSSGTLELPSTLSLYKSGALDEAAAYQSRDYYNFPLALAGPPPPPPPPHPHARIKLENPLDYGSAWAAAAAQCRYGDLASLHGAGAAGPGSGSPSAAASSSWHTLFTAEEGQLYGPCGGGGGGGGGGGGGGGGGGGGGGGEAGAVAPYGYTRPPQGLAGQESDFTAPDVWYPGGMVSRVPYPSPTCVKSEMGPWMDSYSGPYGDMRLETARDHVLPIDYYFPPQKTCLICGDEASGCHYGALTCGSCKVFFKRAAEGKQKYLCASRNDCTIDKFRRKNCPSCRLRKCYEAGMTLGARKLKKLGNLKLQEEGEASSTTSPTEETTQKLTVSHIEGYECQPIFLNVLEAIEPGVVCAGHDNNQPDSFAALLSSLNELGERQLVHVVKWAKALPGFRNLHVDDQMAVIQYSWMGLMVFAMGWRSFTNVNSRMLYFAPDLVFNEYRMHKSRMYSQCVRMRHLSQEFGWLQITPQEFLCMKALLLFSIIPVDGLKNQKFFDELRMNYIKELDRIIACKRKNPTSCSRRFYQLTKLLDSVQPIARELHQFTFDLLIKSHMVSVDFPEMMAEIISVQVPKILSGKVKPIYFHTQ
# Description: Binding affinity determined against human Androgen receptor
# Glucocorticoid receptor = target: T3, Glucocorticoid receptor (Homo sapiens, UniProt P04150)
# T3 sequence (P04150 whole entry): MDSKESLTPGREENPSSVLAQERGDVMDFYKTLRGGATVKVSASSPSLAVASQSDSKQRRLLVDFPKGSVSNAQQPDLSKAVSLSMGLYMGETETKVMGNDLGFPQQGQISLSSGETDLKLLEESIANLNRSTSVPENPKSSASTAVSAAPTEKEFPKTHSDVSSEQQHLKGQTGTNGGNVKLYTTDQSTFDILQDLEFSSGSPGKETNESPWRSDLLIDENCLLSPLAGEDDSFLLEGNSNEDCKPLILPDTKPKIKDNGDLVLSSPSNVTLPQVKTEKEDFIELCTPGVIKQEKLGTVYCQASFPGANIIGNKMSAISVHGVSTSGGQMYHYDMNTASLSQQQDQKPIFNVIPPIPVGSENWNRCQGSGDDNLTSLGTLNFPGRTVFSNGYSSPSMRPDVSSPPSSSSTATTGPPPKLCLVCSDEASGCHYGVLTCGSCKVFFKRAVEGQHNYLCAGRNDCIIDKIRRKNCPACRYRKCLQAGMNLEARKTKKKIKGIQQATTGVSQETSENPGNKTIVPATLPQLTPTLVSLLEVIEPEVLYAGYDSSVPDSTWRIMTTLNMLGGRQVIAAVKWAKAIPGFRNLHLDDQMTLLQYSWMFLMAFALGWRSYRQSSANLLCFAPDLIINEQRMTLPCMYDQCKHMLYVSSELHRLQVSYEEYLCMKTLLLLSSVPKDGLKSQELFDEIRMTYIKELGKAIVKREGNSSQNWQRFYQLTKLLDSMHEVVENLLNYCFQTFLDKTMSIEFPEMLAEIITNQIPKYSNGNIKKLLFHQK
# Description: Binding affinity was determined for human glucocorticoid receptor(hGR).
# Progesterone receptor [2] = target: T1, Progesterone receptor; remark: listed apart in the source
# Progesterone receptor [3] = target: T1, Progesterone receptor; remark: listed apart in the source
# [4] = target: T4, Progesterone receptor (Homo sapiens) (UniProt P06401); settings: CV-1
# T4 sequence (whole entry): T1 sequence (P06401 whole entry)
# Progesterone receptor [5] = target: T1, Progesterone receptor; remark: listed apart in the source
SMILES,IC50 (Progesterone receptor [1]) [nM],Ki (Androgen receptor),Ki (Glucocorticoid receptor),IC50 (Progesterone receptor [2]) [nM],Ki (Progesterone receptor [3]),Max inhibition [4] [%],EC50 (Progesterone receptor [5]) [nM]
C=C1C[C@H](C)C[C@@H](C)[C@@H]1Cc1cc(OC)c(Br)cc1O,350,1140 nM,1660 nM,985,84 nM,63,–
C=C1C=C(C)CC(C)(C)C1(O)Cc1ccc([N+](=O)[O-])cc1 (stereo unspecified),–,6450 nM,8510 nM,–,–,87,–
C=C1C=C(C)CC(C)(C)C1Cc1ccc2nonc2c1 (stereo unspecified),775,> 10000 nM,8360 nM,1950,88 nM,72,–
C=C1C=C(C)CC(C)(C)C1Sc1ccc([N+](=O)[O-])cc1 (stereo unspecified),–,> 10000 nM,8220 nM,–,–,44,–
C=C1CCCC(C)(C)C1Cc1cc(OC)c(Br)cc1O (stereo unspecified),163,–,2210 nM,405,77 nM,55,4020
C=C1CCC(C)(C)C1Cc1cc(OC)c(Br)cc1O (stereo unspecified),250,1920 nM,4530 nM,1200,441 nM,98,–
C=C1C=C(C)CC(C)(C)C1Cc1cc(OC)c(Br)cc1OC(C)=O (stereo unspecified),770,1940 nM,2200 nM,710,59.6 nM,42,1460
C=C1C=CCC(C)(C)C1Cc1cc(OC)c(Br)cc1O (stereo unspecified),280,1520 nM,2780 nM,783,156 nM,71,–
C=C1C(C)=CCC(C)(C)[C@@H]1Cc1cc(OC)c(Br)cc1OC(C)=O,210,6390 nM,4110 nM,660,455 nM,83,–
CCOC1=CC(=O)C(Cc2ccc([N+](=O)[O-])cc2)C(C)(C)C1 (stereo unspecified),–,10000 nM (not active),10000 nM (not active),2440,> 10000 nM,93,–
C=C1C=C(C)C[C@@H](C)[C@@H]1Cc1cc(OC)c(Br)cc1OC(C)=O,147,1500 nM,2380 nM,350,21 nM,52,3010
C=C1[C@H](O)CCC(C)(C)[C@@H]1Cc1cc(OC)c(Br)cc1O,1700,10000 nM (not active),> 10000 nM,3400,10000 nM (not active),73,–
C=C1C=C(C)CC(C)(C)C1Cc1ccc([N+](=O)[O-])c(C)c1 (stereo unspecified),510,2700 nM,6810 nM,1800,28.8 nM,85,–
C=C1C=C(C)CC(C)(C)C1Cc1cc(OC)c(Br)cc1O (stereo unspecified),–,1450 nM,1260 nM,–,–,37,–
C=C1[C@@H](Cc2cc(OC)c(Br)cc2O)C(C)(C)CC[C@@]1(C)O,430,6660 nM,> 10000 nM,2000,275 nM,78,–
C=C1C=C(C)C(Cc2cc(OC)c(Br)cc2O)C(C)(C)C1 (stereo unspecified),–,1590 nM,2670 nM,–,–,66,–
C=C1CCCC(C)(C)[C@@H]1Cc1cc(OC)c(Br)cc1O,290,–,1780 nM,597,34 nM,45,3260
C=C1CCC[C@@H](C)[C@@H]1Cc1cc(OC)c(Br)cc1O,200,570 nM,2290 nM,320,69 nM,62,3010
C=C1CCC[C@H](C)[C@H]1Cc1cc(OC)c(Br)cc1O,300,1640 nM,3700 nM,1050,71 nM,93,–
COc1cc(CC2C(C)(C)CC(C)=CC23CC3)c(OC(C)=O)cc1Br (stereo unspecified),440,3010 nM,2570 nM,160,98 nM,26,2120
